Laboratory results reported in patent US9073830B2 (Hyundai Pharm Co., Ltd., priority 2011, dated 2015).
Each block holds one compound with its values, some of them ahead of it.

Columns and labels:
mouse 11β-HSD1 = biological target: T1, mouse 11β-HSD1 (Mus musculus, UniProt P50172); assay: Enzyme activity analysis on mouse 11β-HSD1 (HTRF cortisol, liver microsomes); assay type: biochemical; settings: second value of cell
T1 construct: 100 ug/ml human/mouse liver microsomes; from tissue; host or cells: mouse liver microsomes
T1 sequence (P50172 whole entry): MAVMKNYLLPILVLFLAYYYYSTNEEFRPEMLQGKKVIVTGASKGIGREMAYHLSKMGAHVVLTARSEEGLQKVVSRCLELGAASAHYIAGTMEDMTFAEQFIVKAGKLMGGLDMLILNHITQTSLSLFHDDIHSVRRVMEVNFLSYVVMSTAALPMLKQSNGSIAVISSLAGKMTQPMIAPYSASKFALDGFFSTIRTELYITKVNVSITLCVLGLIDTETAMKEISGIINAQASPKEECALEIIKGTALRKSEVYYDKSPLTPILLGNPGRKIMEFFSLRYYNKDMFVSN
Method: (§1) After culturing at 37° C. for 2 hours, 5 μl of cryptate-labeled anti-cortisol antibody and 5 μl of d2-labeled cortisol were added thereto. After further culturing at room temperature for 2 hours, a homogeneous time-resolved fluorescence (HTRF, Cisbio) signal was measured. From each analysis, based on a standard curve calculated using cortisols of several known concentrations, an amount of produced cortisol was tested.
(§2) While an amount of cortisol, produced without the compound, was used as a control, an inhibition percentage by the test compound, at each concentration, was calculated. By using an inhibition curve calculated by coordinates of inhibition percentage to test compound concentration, an IC50 value of the compound on 11β-HSD1 was obtained.

human 11β-HSD1 = biological target: T2, human 11β-HSD1 (Homo sapiens, UniProt P28845); assay: Enzyme activity analysis on human 11β-HSD1 (HTRF cortisol, liver microsomes); assay type: biochemical; settings: first value of cell
T2 construct: 100 ug/ml human/mouse liver microsomes; from tissue; host or cells: human liver microsomes
T2 sequence (P28845 whole entry): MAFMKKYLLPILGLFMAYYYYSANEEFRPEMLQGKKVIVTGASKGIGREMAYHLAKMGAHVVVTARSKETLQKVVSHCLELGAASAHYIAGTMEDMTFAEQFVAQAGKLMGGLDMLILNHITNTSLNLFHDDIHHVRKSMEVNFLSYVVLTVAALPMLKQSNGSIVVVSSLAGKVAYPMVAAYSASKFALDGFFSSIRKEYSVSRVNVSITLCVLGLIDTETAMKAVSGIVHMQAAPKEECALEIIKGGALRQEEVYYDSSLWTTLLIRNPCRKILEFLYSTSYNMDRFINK
Method: as §1, §2

IC50 (mouse 11β-HSD1): 0.005 µM | IC50 (human 11β-HSD1): 0.002 µM
SMILES: CN(C(C)(C)C(=O)NC1C2CC3CC1CC(C(N)=O)(C3)C2)S(=O)(=O)c1ccccc1Cl (stereo not drawn) [compound 190, N-4-(2-(2-chloro-N-methylphenylsulfonamido)-2-methylpropanamido)adamantane-1-carboxyamide]

IC50 (mouse 11β-HSD1): 0.144 µM | IC50 (human 11β-HSD1): 0.013 µM
SMILES: Cc1ccc(F)cc1S(=O)(=O)NC(C)(C)C(=O)NC1C2CC3CC1CC(C(N)=O)(C3)C2 (stereo not drawn) [compound 95, N-4-(2-(2-methyl-5-fluorophenylsulfonamido)-2-methylpropanamido)adamantane-1-carboxyamide]

IC50 (mouse 11β-HSD1): 0.182 µM | IC50 (human 11β-HSD1): 0.008 µM
SMILES: CCN(C(C)(C)C(=O)NC1C2CC3CC1CC(C(N)=O)(C3)C2)S(=O)(=O)c1ccccc1C (stereo not drawn) [compound 209, N-4-(2-(2-methyl-N-ethylphenylsulfonamido)-2-methylpropanamido)adamantane-1-carboxyamide]

IC50 (mouse 11β-HSD1): 0.062 µM | IC50 (human 11β-HSD1): 0.182 µM
SMILES: Cc1ccc(S(=O)(=O)NC2(C(=O)NC3C4CC5CC3CC(C(N)=O)(C5)C4)CCC2)cc1F (stereo not drawn) [compound 151, N-4-(1-(3-fluoro-4-methylphenylsulfonamido)cyclobutanecarboxyamido)adamantane-1-carboxyamide]

IC50 (mouse 11β-HSD1): 0.456 µM | IC50 (human 11β-HSD1): 0.235 µM
SMILES: COc1ccc(S(=O)(=O)NC(C)(C)C(=O)NC2C3CC4CC2CC(C(N)=O)(C4)C3)cc1F (stereo not drawn) [compound 115, N-4-(2-(3-fluoro-4-methoxyphenylsulfonamido)-2-methylpropanamido)adamantane-1-carboxyamide]

IC50 (mouse 11β-HSD1): 0.298 µM | IC50 (human 11β-HSD1): 0.058 µM
SMILES: Cc1ccc(F)c(S(=O)(=O)NC2(C(=O)NC3C4CC5CC3CC(C(N)=O)(C5)C4)CCC2)c1 (stereo not drawn) [compound 164, N-4-(1-(2-fluoro-5-methylphenylsulfonamido)cyclobutanecarboxyamido)adamantane-1-carboxyamide]

IC50 (mouse 11β-HSD1): 0.847 µM | IC50 (human 11β-HSD1): 0.829 µM
SMILES: CC(=O)c1ccc(S(=O)(=O)NC(C)(C)C(=O)NC2C3CC4CC(C3)CC2C4)cc1 (stereo not drawn) [compound 38, N-(adamantane-2-yl)-2-methyl-2-(4-acetylphenylsulfonamido)propanamide]

IC50 (mouse 11β-HSD1): 0.168 µM | IC50 (human 11β-HSD1): 0.021 µM
SMILES: CC(C)(NS(=O)(=O)c1cc(Cl)cc(Br)c1)C(=O)NC1C2CC3CC1CC(C(N)=O)(C3)C2 (stereo not drawn) [compound 125]

IC50 (mouse 11β-HSD1): 0.41 µM | IC50 (human 11β-HSD1): 0.061 µM
SMILES: NC(=O)C12CC3CC(C1)C(NC(=O)C1(NS(=O)(=O)c4ccccc4C(F)(F)F)CCC1)C(C3)C2 (stereo not drawn) [compound 157, N-4-(1-(2-trifluoromethylphenylsulfonamido)cyclobutanecarboxyamido)adamantane-1-carboxyamide]

IC50 (mouse 11β-HSD1): 0.213 µM | IC50 (human 11β-HSD1): 0.072 µM
SMILES: CC(C)(NS(=O)(=O)c1ccc(F)cc1Cl)C(=O)NC1C2CC3CC1CC(O)(C3)C2 (stereo not drawn) [compound 80, N-(5-hydroxyadamantane-2-yl)-2-methyl-2-(4-fluoro-2-chlorophenylsulfonamido)propan amide]

IC50 (mouse 11β-HSD1): 0.215 µM | IC50 (human 11β-HSD1): 0.208 µM
SMILES: CC(C)(NS(=O)(=O)c1ccc([N+](=O)[O-])c(C(F)(F)F)c1)C(=O)NC1C2CC3CC1CC(C(N)=O)(C3)C2 (stereo not drawn) [compound 113, N-4-(2-(3-trifluoromethyl-4-nitrophenylsulfonamido)-2-methylpropanamido)adamantane-1-carboxyamide]

IC50 (mouse 11β-HSD1): 0.145 µM | IC50 (human 11β-HSD1): 0.024 µM
SMILES: NC(=O)C12CC3CC(C1)C(NC(=O)C1(NS(=O)(=O)c4ccccc4Br)CCC1)C(C3)C2 (stereo not drawn) [compound 155, N-4-(1-(2-bromophenylsulfonamido)cyclobutanecarboxyamido)adamantane-1-carboxyamide]

IC50 (mouse 11β-HSD1): 0.107 µM | IC50 (human 11β-HSD1): 0.016 µM
SMILES: Cc1cc(C)cc(S(=O)(=O)NC(C)(C)C(=O)NC2C3CC4CC2CC(C(N)=O)(C4)C3)c1 (stereo not drawn) [compound 91, N-4-(2-(3,5-dimethylphenylsulfonamido)-2-methylpropanamido)adamantane-1-carboxyamide]

IC50 (mouse 11β-HSD1): 0.126 µM | IC50 (human 11β-HSD1): 0.096 µM
SMILES: NC(=O)C12CC3CC(C1)C(NC(=O)C1(NS(=O)(=O)c4cccc(Cl)c4F)CCC1)C(C3)C2 (stereo not drawn) [compound 159, N-4-(1-(2-fluoro-3-chlorophenylsulfonamido)cyclobutanecarboxyamido)adamantane-1-carboxyamide]

IC50 (mouse 11β-HSD1): 0.455 µM | IC50 (human 11β-HSD1): 0.182 µM
SMILES: CC(C)(NS(=O)(=O)c1ccc(C(F)(F)F)cc1)C(=O)NC1C2CC3CC1CC(C(N)=O)(C3)C2 (stereo not drawn) [compound 126]

IC50 (mouse 11β-HSD1): 0.015 µM
SMILES: CN(C(C)(C)C(=O)NC1C2CC3CC1CC(C(N)=O)(C3)C2)S(=O)(=O)c1ccccc1F (stereo not drawn) [compound 195, N-4-(2-(2-fluoro-N-methylphenylsulfonamido)-2-methylpropanamido)adamantane-1-carboxyamide]

IC50 (human 11β-HSD1): 0.35 µM
SMILES: CC(C)(NS(=O)(=O)c1ccc(Cl)c(Cl)c1)C(=O)NC1C2CC3CC(C2)CC1C3 (stereo not drawn) [compound 11, N-(adamantane-2-yl)-2-methyl-2-(3,4-dichlorophenylsulfonamido)propanamide]

Second part, the compound before the results:

SMILES: CC(C)(NS(=O)(=O)c1ccc(Br)cc1)C(=O)NC1C2CC3CC(C2)CC1C3 (stereo not drawn) [compound 65, N-(adamantane-2-yl)-2-methyl-2-(4-bromophenylsulfonamido)propanamide]
IC50 (mouse 11β-HSD1): 1.65 µM | IC50 (human 11β-HSD1): 0.996 µM

SMILES: O=C(NC1C2CC3CC(C2)CC1C3)C1(NS(=O)(=O)c2ccccc2OC(F)(F)F)CCC1 (stereo not drawn) [compound 144, N-(adamantane-2-yl)-1-(2-trifluoromethoxyphenylsulfonamido)cyclobutanecarboxyamide]
IC50 (mouse 11β-HSD1): 1.82 µM | IC50 (human 11β-HSD1): 0.265 µM

SMILES: CC(C)(NS(=O)(=O)c1cccnc1Cl)C(=O)NC1C2CC3CC(C2)CC1C3 (stereo not drawn) [compound 50, N-(adamantane-2-yl)-2-methyl-2-(2-chloropyridine-3-sulfonamido)propanamide]
IC50 (mouse 11β-HSD1): 0.292 µM | IC50 (human 11β-HSD1): 0.105 µM

SMILES: CC(C)(NS(=O)(=O)c1ccc(Cl)cc1Cl)C(=O)NC1C2CC3CC(C2)CC1C3 (stereo not drawn) [compound 46, N-(adamantane-2-yl)-2-methyl-2-(2,4-dichlorophenylsulfonamido)propanamide]
IC50 (mouse 11β-HSD1): 0.621 µM | IC50 (human 11β-HSD1): 0.105 µM

SMILES: CN(C(C)(C)C(=O)NC1C2CC3CC1CC(O)(C3)C2)S(=O)(=O)c1ccccc1Br (stereo not drawn) [compound 206, N-(5-hydroxyadamantane-2-yl)-2-(2-bromo-N-methylphenylsulfonamido)-2-methylpropanamide]
IC50 (mouse 11β-HSD1): 0.041 µM | IC50 (human 11β-HSD1): 0.005 µM

SMILES: CC(C)(NS(=O)(=O)c1cccc(Cl)c1)C(=O)NC1C2CC3CC(C2)CC1C3 (stereo not drawn) [compound 10, N-(adamantane-2-yl)-2-methyl-2-(3-chlorophenylsulfonamido)propanamide]
IC50 (mouse 11β-HSD1): 0.735 µM | IC50 (human 11β-HSD1): 0.212 µM

SMILES: NC(=O)C12CC3CC(C1)C(NC(=O)C1(NS(=O)(=O)c4ccccc4[N+](=O)[O-])CCCCC1)C(C3)C2 (stereo not drawn) [compound 184, N-4-(1-(2-nitrophenylsulfonamido)cyclohexanecarboxyamido)adamantane-1-carboxyamide]
IC50 (mouse 11β-HSD1): 0.104 µM | IC50 (human 11β-HSD1): 0.005 µM

SMILES: CC(C)(NS(=O)(=O)Cc1ccc(Cl)c(Cl)c1)C(=O)NC1C2CC3CC(C2)CC1C3 (stereo not drawn) [compound 35, N-(adamantane-2-yl)-2-methyl-2-((3,4-dichlorophenyl)methylsulfonamido)propanamide]
IC50 (mouse 11β-HSD1): > 2.5 µM | IC50 (human 11β-HSD1): > 2.5 µM

SMILES: COc1cc([N+](=O)[O-])ccc1S(=O)(=O)NC(C)(C)C(=O)NC1C2CC3CC(C2)CC1C3 (stereo not drawn) [compound 60, N-(adamantane-2-yl)-2-methyl-2-(4-nitro-2-methoxyphenylsulfonamido)propanamide]
IC50 (mouse 11β-HSD1): 0.644 µM | IC50 (human 11β-HSD1): 0.135 µM

SMILES: NC(=O)C12CC3CC(C1)C(NC(=O)C1(NS(=O)(=O)c4ccccc4[N+](=O)[O-])CCCC1)C(C3)C2 (stereo not drawn) [compound 173, N-4-(1-(2-nitrophenylsulfonamido)cyclopentanecarboxyamido)adamantane-1-carboxyamide]
IC50 (mouse 11β-HSD1): 0.038 µM | IC50 (human 11β-HSD1): 0.014 µM

SMILES: NC(=O)C12CC3CC(C1)C(NC(=O)C1(NS(=O)(=O)c4ccccc4C(F)(F)F)CCCCC1)C(C3)C2 (stereo not drawn) [compound 181, N-4-(1-(2-trifluoromethylphenylsulfonamido)cyclohexanecarboxyamido)adamantane-1-carboxyamide]
IC50 (mouse 11β-HSD1): 0.132 µM | IC50 (human 11β-HSD1): 0.019 µM

SMILES: CC(C)(NS(=O)(=O)c1ccc(C(C)(C)C)cc1)C(=O)NC1C2CC3CC(C2)CC1C3 (stereo not drawn) [compound 18, N-(adamantane-2-yl)-2-methyl-2-(4-(t-butyl)phenylsulfonamido)propanamide]
IC50 (human 11β-HSD1): 1.14 µM

SMILES: CC(C)(NS(=O)(=O)c1ccc2ccccc2c1)C(=O)NC1C2CC3CC(C2)CC1C3 (stereo not drawn) [compound 21, N-(adamantane-2-yl)-2-methyl-2-(naphthalene-2-sulfonamido)propanamide]
IC50 (human 11β-HSD1): 0.466 µM

SMILES: CC(C)(NS(=O)(=O)c1c(Cl)cc(Cl)cc1Cl)C(=O)NC1C2CC3CC(C2)CC1C3 (stereo not drawn) [compound 14, N-(adamantane-2-yl)-2-methyl-2-(2,4,6-trichlorophenylsulfonamido)propanamide]
IC50 (human 11β-HSD1): 0.17 µM

SMILES: COc1ccc(S(=O)(=O)NC(C)(C)C(=O)NC2C3CC4CC(C3)CC2C4)cc1 (stereo not drawn) [compound 24, N-(adamantane-2-yl)-2-methyl-2-(4-methoxyphenylsulfonamido)propanamide]
IC50 (human 11β-HSD1): 0.404 µM

SMILES: CC(C)(NS(=O)(=O)c1cccc2ccccc12)C(=O)NC1C2CC3CC(C2)CC1C3 (stereo not drawn) [compound 20, N-(adamantane-2-yl)-2-methyl-2-(naphthalene-1-sulfonamido)propanamide]
IC50 (human 11β-HSD1): 0.304 µM

SMILES: CC(C)(NS(=O)(=O)c1cccc(C(F)(F)F)c1)C(=O)NC1C2CC3CC(C2)CC1C3 (stereo not drawn) [compound 19, N-(adamantane-2-yl)-2-methyl-2-(3-trifluoromethylphenylsulfonamido)propanamide]
IC50 (human 11β-HSD1): 0.478 µM
